According to publication PMC13065503:

Assay: Cys/Cys side-chain stapling of bis-cysteine Omomyc mutants by S-alkylation with bis(bromomethyl)arenes (1.25 eq): 4,4'-bis(bromomethyl)biphenyl for i,i+7 or 1,3-bis(bromomethyl)benzene (with 2 eq TCEP) for i,i+4; pH 8
Conditions: the molecule shown is the open-chain precursor; 22-membered ring; 100 mM aq NH4HCO3 pH 8 / 25% MeCN; 0.1 mM

Q: With “H-AMADIGSMAC(SH)EENC(SH)KRRTHNVLERQRRNELKRSFFALRDQIPELENNEKAPKVVILKKATAYILSVQAETQKLISEIDLLRKQNEQLKHKLEQLRNSAA-OH” as the substance, how does the ring closure, isolated yield read?
A: The ring closure, isolated yield was 38%.

Q: Which ring closure, isolated yield does the source give for “H-AMADIGSMATEENC(SH)KRRC(SH)HNVLERQRRNELKRSFFALRDQIPELENNEKAPKVVILKKATAYILSVQAETQKLISEIDLLRKQNEQLKHKLEQLRNSAA-OH” here?
A: Its ring closure, isolated yield is 26%.

Same assay, conditions: the molecule shown is the open-chain precursor; 36-membered ring; 100 mM aq NH4HCO3 pH 8 / 25% MeCN; 0.1 mM

Q: For “H-AMADIGSMATEENC(SH)KRRTHNC(SH)LERQRRNELKRSFFALRDQIPELENNEKAPKVVILKKATAYILSVQAETQKLISEIDLLRKQNEQLKHKLEQLRNSAA-OH”, which ring closure, isolated yield is on record?
A: Its ring closure, isolated yield is 67%.

Q: For “H-AMADIGSMATEENVKRRTHNC(SH)LERQRRC(SH)ELKRSFFALRDQIPELENNEKAPKVVILKKATAYILSVQAETQKLISEIDLLRKQNEQLKHKLEQLRNSAA-OH”, which ring closure, isolated yield is on record?
A: The ring closure, isolated yield was 69%.

Q: Which ring closure, isolated yield does the source give for “H-AMADIGSMATEENVKRRTHNC(SH)LERQRRC(SH)ELKRSFFALRDQIPELENNEKAPKVVILKKATAYILSVQAETQKLISEIDLLRKQNEQLKHKLEQLRNSAAPAAKRVKLD-OH” here?
A: The ring closure, isolated yield was 60%.

Q: With “H-AMADIGSPAAKRVKLDMATEENVKRRTHNC(SH)LERQRRC(SH)ELKRSFFALRDQIPELENNEKAPKVVILKKATAYILSVQAETQKLISEIDLLRKQNEQLKHKLEQLRNSAA-OH” as the substance, how does the ring closure, isolated yield read?
A: Its ring closure, isolated yield is 46%.
